# Measured values as given in patent publication US20250108038A1 (priority 2023, published 2025).
# Where “and” joins values, the source holds several entries; their conditions need not be identical. Identical values can stand only once.
# System: Long Evans rats
# Test: Behavioral satiety sequence (BSS)
# Type: in vivo, Long Evans rat
# Source text: The Behavioural Satiety Sequence (BSS) is a technique used to evaluate physiological satiety. It is based on the expression of a sequence of behaviors including eating, grooming, locomotor activity, followed by resting, which are typically observed in rodents post-ingestion (Halford et al, 1998, Pharmacology Biochemistry and Behaviour. 61(2): 159-168). The BSS is a widely used model for determining the effects of novel pharmaceuticals on food intake and measures of satiety in rodents (Oliveira et al, 2011, Revista de Nutrição. 24(4) 619-628), and to discriminate the cause of reduced food intake following pharmacological manipulation. For example, treatments that may reduce food intake by non-specific mechanisms, such as immobility, malaise, and taste adulteration, will disrupt this sequence (Halford et al, 1998, Pharmacology Biochemistry and Behaviour. 61(2): 159-168).
# Specifically, 12 male Long-Evans rats were food-deprived for 22 h with a 2 h feeding period each day. Rats were trained to consume daily food during the 2 h period over 25 days. The testing phase was initiated once the rats consistently consumed 16-18 g of food per day with ≤10% variance in amount of feed consumed. Feeding took place in designated individual boxes in a quiet room separate from the housing room. Continuous remote monitoring via video camera during feeding was used to assess the BSS. Food consumption was measured by weighing the total available food before and after the 2 h feeding window, correcting for spillage. Lorcaserin (1 mg/kg) was included as a reference control (Higgins et al, 2011, Neuropsychopharmacology. 37(5): 1177-1191). Subjects were tested using a repeated-measures, Latin square design with 2-3 days wash-out between treatment cycles.
# On scheduled test days, animals were monitored remotely via video camera during the feeding access period. The occurrence of four mutually exclusive behaviors (eating/drinking, grooming, active, rest) were individually scored. Over the 2 h feeding period, behaviors were assessed every 30 seconds. Scores were compiled into 23 5 min timebins (timebin 24 was removed due to early removal of animals) and the frequency of each behavior within each timebin was calculated to determine a temporal frequency of each measure (Rodgers et al, 2010, Pharmacology Biochemistry and Behaviour. 97: 3-14). Percentage time was plotted for each behavioral sequence in each timebin to compare between treatment groups (Higgins et al, 2011, Neuropsychopharmacology. 37(5): 1177-1191).
# [1] = 3 mg/kg, raw data per animal (LT-1 to LT-12)
# [2] = Compound I-19 0.1 mg/kg, AVG of animals LT-1 to LT-12
# [3] = Compound I-19 0.1 mg/kg, AVG of animals LT-1 to LT-12, 0-0.5 hours
structure (smiles),measurement,setting,value
Clc1ccc(C2(OCC3OCCO3)c3ccccc3C3=NCCN32)cc1 (stereo not drawn) [Compound I-19],"BSS scoring E (eating/drinking), Time Bin 19 (90-95 TOTAL), AVG","3 mg/kg, AVG of LT-1 to LT-12",0.59
same,"BSS scoring E (eating/drinking), Time Bin 20 (95-100 TOTAL), AVG","3 mg/kg, AVG of LT-1 to LT-12",0.62
same,"BSS scoring E (eating/drinking), Time Bin 21 (100-105 TOTAL), AVG","3 mg/kg, AVG of LT-1 to LT-12",0.56
same,"BSS scoring E (eating/drinking), Time Bin 22 (105-110 TOTAL), AVG","3 mg/kg, AVG of LT-1 to LT-12",0.52
same,"BSS scoring E (eating/drinking), Time Bin 23 (110-115 TOTAL), AVG","3 mg/kg, AVG of LT-1 to LT-12",0.58
same,"BSS scoring E (eating/drinking), Time Bin 24 (115-120 TOTAL), AVG","3 mg/kg, AVG of LT-1 to LT-12",0.37
same,"BSS scoring G (grooming), Time Bin 19 (90-95 TOTAL), AVG","3 mg/kg, AVG of LT-1 to LT-12",0.05
same,"BSS scoring G (grooming), Time Bin 20 (95-100 TOTAL), AVG","3 mg/kg, AVG of LT-1 to LT-12",0.04
same,"BSS scoring G (grooming), Time Bin 21 (100-105 TOTAL), AVG","3 mg/kg, AVG of LT-1 to LT-12",0.06
same,"BSS scoring G (grooming), Time Bin 22 (105-110 TOTAL), AVG","3 mg/kg, AVG of LT-1 to LT-12",0.07
same,"BSS scoring G (grooming), Time Bin 23 (110-115 TOTAL), AVG","3 mg/kg, AVG of LT-1 to LT-12",0.02
same,"BSS scoring G (grooming), Time Bin 24 (115-120 TOTAL), AVG","3 mg/kg, AVG of LT-1 to LT-12",0.02
same,"BSS scoring R (resting), Time Bin 19 (90-95 TOTAL), AVG","3 mg/kg, AVG of LT-1 to LT-12",0.18
same,"BSS scoring R (resting), Time Bin 20 (95-100 TOTAL), AVG","3 mg/kg, AVG of LT-1 to LT-12",0.15
same,"BSS scoring R (resting), Time Bin 21 (100-105 TOTAL), AVG","3 mg/kg, AVG of LT-1 to LT-12",0.16
same,"BSS scoring R (resting), Time Bin 22 (105-110 TOTAL), AVG","3 mg/kg, AVG of LT-1 to LT-12",0.22
same,"BSS scoring R (resting), Time Bin 23 (110-115 TOTAL), AVG","3 mg/kg, AVG of LT-1 to LT-12",0.22
same,"BSS scoring R (resting), Time Bin 24 (115-120 TOTAL), AVG","3 mg/kg, AVG of LT-1 to LT-12",0.18
same,"BSS scoring A (active), Time Bin 19 (90-95 TOTAL)",[1],0 (3×) and 1 (2×) and 2 (5×) and 4 and 5
same,"BSS scoring A (active), Time Bin 20 (95-100 TOTAL)",[1],5 and 0 (5×) and 3 and 4 (3×) and 1 and 2
same,"BSS scoring A (active), Time Bin 21 (100-105 TOTAL)",[1],7 and 0 (6×) and 1 and 5 (3×) and 3
same,"BSS scoring A (active), Time Bin 22 (105-110 TOTAL)",[1],0 (5×) and 1 and 3 (2×) and 5 and 2 (2×) and 8
same,"BSS scoring A (active), Time Bin 23 (110-115 TOTAL)",[1],0 (6×) and 3 (2×) and 5 (2×) and 1 and 6
same,"BSS scoring A (active), Time Bin 24 (115-120 TOTAL)",[1],3 and 0 (3×) and 2 (3×) and 7 (2×) and 1 and 4 (2×)
same,"BSS scoring E (eating/drinking), Time Bin 19 (90-95 TOTAL)",[1],7 (2×) and 8 (2×) and 9 and 6 and 0 and 1 and 5 (3×) and 10
same,"BSS scoring E (eating/drinking), Time Bin 20 (95-100 TOTAL)",[1],4 (3×) and 10 and 5 and 8 (2×) and 9 (2×) and 0 and 7 and 6
same,"BSS scoring E (eating/drinking), Time Bin 21 (100-105 TOTAL)",[1],3 and 10 (2×) and 9 (3×) and 7 (2×) and 0 (2×) and 1 and 2
same,"BSS scoring E (eating/drinking), Time Bin 22 (105-110 TOTAL)",[1],8 and 5 and 7 (3×) and 9 (2×) and 0 (2×) and 3 (2×) and 4
same,"BSS scoring E (eating/drinking), Time Bin 23 (110-115 TOTAL)",[1],10 (3×) and 6 and 0 (2×) and 8 (2×) and 4 and 3 and 5 (2×)
same,"BSS scoring E (eating/drinking), Time Bin 24 (115-120 TOTAL)",[1],6 and 0 (3×) and 8 and 4 (2×) and 7 and 2 (2×) and 1 and 10
same,"BSS scoring G (grooming), Time Bin 19 (90-95 TOTAL)",[1],0 (8×) and 2 (2×) and 1 (2×)
same,"BSS scoring G (grooming), Time Bin 20 (95-100 TOTAL)",[1],0 (8×) and 1 (3×) and 2
same,"BSS scoring G (grooming), Time Bin 21 (100-105 TOTAL)",[1],0 (8×) and 1 and 2 (3×)
same,"BSS scoring G (grooming), Time Bin 22 (105-110 TOTAL)",[1],0 (8×) and 2 (2×) and 1 and 3
same,"BSS scoring G (grooming), Time Bin 23 (110-115 TOTAL)",[1],0 (10×) and 1 (2×)
same,"BSS scoring G (grooming), Time Bin 24 (115-120 TOTAL)",[1],0 (10×) and 1 (2×)
same,"BSS scoring R (resting), Time Bin 19 (90-95 TOTAL)",[1],3 and 0 (5×) and 2 and 1 (3×) and 8 and 6
same,"BSS scoring R (resting), Time Bin 20 (95-100 TOTAL)",[1],1 (4×) and 0 (4×) and 2 (3×) and 8
same,"BSS scoring R (resting), Time Bin 21 (100-105 TOTAL)",[1],0 (5×) and 3 (2×) and 6 and 1 (3×) and 4
same,"BSS scoring R (resting), Time Bin 22 (105-110 TOTAL)",[1],2 (3×) and 0 (2×) and 1 (5×) and 10 and 5
same,"BSS scoring R (resting), Time Bin 23 (110-115 TOTAL)",[1],0 (5×) and 10 and 1 (2×) and 5 (2×) and 2 (2×)
same,"BSS scoring R (resting), Time Bin 24 (115-120 TOTAL)",[1],1 (3×) and 0 (4×) and 2 (2×) and 4 (2×) and 7
same,"BSS scoring A (active), Time Bin 19 (90-95 TOTAL), AVG",[2],0.30
same,"BSS scoring A (active), Time Bin 20 (95-100 TOTAL), AVG",[2],0.13
same,"BSS scoring A (active), Time Bin 21 (100-105 TOTAL), AVG",[2],0.08
same,"BSS scoring A (active), Time Bin 22 (105-110 TOTAL), AVG",[2],0.13
same,"BSS scoring A (active), Time Bin 23 (110-115 TOTAL), AVG",[2],0.21
same,"BSS scoring A (active), Time Bin 24 (115-120 TOTAL), AVG",[2],0.16
same,"BSS scoring E (eating/drinking), Time Bin 19 (90-95 TOTAL), AVG",[2],0.52
same,"BSS scoring E (eating/drinking), Time Bin 20 (95-100 TOTAL), AVG",[2],0.68
same,"BSS scoring E (eating/drinking), Time Bin 21 (100-105 TOTAL), AVG",[2],0.73
same,"BSS scoring E (eating/drinking), Time Bin 22 (105-110 TOTAL), AVG",[2],0.68
same,"BSS scoring E (eating/drinking), Time Bin 23 (110-115 TOTAL), AVG",[2],0.64
same,"BSS scoring E (eating/drinking), Time Bin 24 (115-120 TOTAL), AVG",[2],0.52
same,"BSS scoring G (grooming), Time Bin 19 (90-95 TOTAL), AVG",[2],0.03
same,"BSS scoring G (grooming), Time Bin 20 (95-100 TOTAL), AVG",[2],0.05
same,"BSS scoring G (grooming), Time Bin 21 (100-105 TOTAL), AVG",[2],0.04
same,"BSS scoring G (grooming), Time Bin 22 (105-110 TOTAL), AVG",[2],0.04
same,"BSS scoring G (grooming), Time Bin 23 (110-115 TOTAL), AVG",[2],0.03
same,"BSS scoring G (grooming), Time Bin 24 (115-120 TOTAL), AVG",[2],0.03
same,"BSS scoring R (resting), Time Bin 19 (90-95 TOTAL), AVG",[2],0.15
same,"BSS scoring R (resting), Time Bin 20 (95-100 TOTAL), AVG",[2],0.14
same,"BSS scoring R (resting), Time Bin 21 (100-105 TOTAL), AVG",[2],0.15
same,"BSS scoring R (resting), Time Bin 22 (105-110 TOTAL), AVG",[2],0.15
same,"BSS scoring R (resting), Time Bin 23 (110-115 TOTAL), AVG",[2],0.12
same,"BSS scoring R (resting), Time Bin 24 (115-120 TOTAL), AVG",[2],0.13
same,"BSS scoring A (active), Time Bin 1 (0-5 TOTAL), AVG",[3],0.09
same,"BSS scoring A (active), Time Bin 2 (5-10 TOTAL), AVG",[3],0.04
same,"BSS scoring A (active), Time Bin 3 (10-15 TOTAL), AVG",[3],0.03
same,"BSS scoring A (active), Time Bin 4 (15-20 TOTAL), AVG",[3],0.09
same,"BSS scoring A (active), Time Bin 5 (20-25 TOTAL), AVG",[3],0.08
same,"BSS scoring A (active), Time Bin 6 (25-30 TOTAL), AVG",[3],0.13
same,"BSS scoring E (eating/drinking), Time Bin 1 (0-5 TOTAL), AVG",[3],0.89
same,"BSS scoring E (eating/drinking), Time Bin 2 (5-10 TOTAL), AVG",[3],0.96
same,"BSS scoring E (eating/drinking), Time Bin 3 (10-15 TOTAL), AVG",[3],0.95
